Assay results reported in patent US20260184663A1, “INDENE COMPOUNDS, PHARMACEUTICAL COMPOSITIONS THEREOF, AND THEIR THERAPEUTIC APPLICATIONS” (NucMito Pharmaceuticals co. Ltd., priority 2022, published 2026).

Legend:
Assay type in all cases: cell-based
[1] = tested on: HeLa (cervical cancer); assay: Antiproliferative activity (CCK-8 cell viability), HeLa; conditions: Homo sapiens, 72 h, read-out: Antiproliferative activity in cancerous cells, HELA (inhibition of cell growth); for inhibition at 3.3 µM: Compound concentration: 3.3 μM; for inhibition at 10 µM: Compound concentration: 10 μM; for inhibition at 30 µM: Compound concentration: 30 μM
How it was run: (§1)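 Growth inhibition graded in bands from percent viability against DMSO vehicle, read as CCK-8 absorbance at 450 nm. Compound tested at 3.3, 10 or 30 μM for 72 h, 37 °C; media contained 10% FBS: DMEM for HepG2/SW480, MEM for HeLa, F-12K for A549.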

[2] = tested on: B16F10 (malignant melanoma); assay: Antiproliferative activity (CCK-8 cell viability), B16F10; conditions: Mus musculus, 72 h, read-out: Antiproliferative activity in cancerous cells, B16F10 (inhibition of cell growth); for inhibition at 3.3 µM: B16-F10, Compound concentration: 3.3 μM; for inhibition at 10 µM: B16-F10, Compound concentration: 10 μM; for inhibition at 30 µM: B16-F10, Compound concentration: 30 μM
How it was run: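 Cell growth inhibition was measured in B16F10 malignant melanoma cells with a Cell Counting Kit-8 viability assay. Cells were maintained in DMEM plus 10% fetal bovine serum, seeded at 2,000-5,000 cells/well in 96-well plates, and treated for 72 h at 37° C. Viability was expressed relative to DMSO-treated vehicle control wells.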

[3] = tested on: A431 (epidermoid carcinoma); assay: Antiproliferative activity (CCK-8 cell viability), A431; conditions: Homo sapiens, 72 h, read-out: Antiproliferative activity in cancerous cells, A431 (inhibition of cell growth); for inhibition at 3.3 µM: A-431, Compound concentration: 3.3 μM; for inhibition at 10 µM: A-431, Compound concentration: 10 μM; for inhibition at 30 µM: A-431, Compound concentration: 30 μM
How it was run: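 This growth inhibition assay used A431 cells maintained in Dulbecco's modified Eagle's medium plus 10% fetal bovine serum. Cells were seeded in 96-well plates, treated with compound for 72 h at 37° C., and then given 10 μL CCK-8 solution. After a further 4 h, absorbance was read at 450 nm.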

[4] = tested on: MDA-MB-231 (breast cancer); assay: Antiproliferative activity (CCK-8 cell viability), MDA-MB-231; conditions: Homo sapiens, 72 h, read-out: Antiproliferative activity in cancerous cells, MDA-MB-231 (inhibition of cell growth); for inhibition at 3.3 µM: Compound concentration: 3.3 μM; for inhibition at 10 µM: Compound concentration: 10 μM; for inhibition at 30 µM: Compound concentration: 30 μM
How it was run: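 Growth inhibition of human MDA-MB-231 breast cancer cells was assessed with a Cell Counting Kit-8. Cells cultured in DMEM plus 10% FBS were seeded at 2,000-5,000 cells/well, treated after attachment, and kept 72 h at 37° C. CCK-8 solution (10 μL) was added for 4 h, and absorbance at 450 nm was compared with DMSO-treated controls.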

[5] = tested on: A549 (lung adenocarcinoma); assay: Antiproliferative activity (CCK-8 cell viability), A549; conditions: Homo sapiens, 72 h, read-out: Antiproliferative activity in cancerous cells, A549 (inhibition of cell growth); for inhibition at 3.3 µM: Compound concentration: 3.3 μM; for inhibition at 10 µM: Compound concentration: 10 μM; for inhibition at 30 µM: Compound concentration: 30 μM
How it was run: as §1

[6] = tested on: SW480 (colon cancer); assay: Antiproliferative activity (CCK-8 cell viability), SW480; conditions: Homo sapiens, 72 h, read-out: Antiproliferative activity in cancerous cells, SW480 (inhibition of cell growth); for inhibition at 3.3 µM: Compound concentration: 3.3 μM; for inhibition at 10 µM: Compound concentration: 10 μM; for inhibition at 30 µM: Compound concentration: 30 μM
How it was run: as §1

[7] = tested on: HepG2 (liver cancer); assay: Antiproliferative activity (CCK-8 cell viability), HepG2; conditions: Homo sapiens, 72 h, read-out: Antiproliferative activity in cancerous cells, HepG2 (inhibition of cell growth); for inhibition at 3.3 µM: Compound concentration: 3.3 μM; for inhibition at 10 µM: Compound concentration: 10 μM; for inhibition at 30 µM: Compound concentration: 30 μM
How it was run: as §1

Structure (SMILES) | inhibition at 3.3 µM [1] [%] | inhibition at 10 µM [1] [%] | inhibition at 3.3 µM [2] [%] | inhibition at 10 µM [2] [%] | inhibition at 3.3 µM [3] [%] | inhibition at 10 µM [3] [%] | inhibition at 3.3 µM [4] [%] | inhibition at 10 µM [4] [%] | inhibition at 3.3 µM [5] [%] | inhibition at 10 µM [5] [%] | inhibition at 3.3 µM [6] [%] | inhibition at 10 µM [6] [%] | inhibition at 3.3 µM [7] [%] | inhibition at 10 µM [7] [%] | further results
CC1=C(CC(=O)O)c2cc(F)ccc2/C1=C\c1ccc(OC2CCN(C(=O)OC(C)(C)C)CC2)cc1 [C201, (Z)-2-(1-(4-((1-(Tert-butoxycarbonyl)piperidin-4-yl)oxy)benzylidene)-5-fluoro-2-methyl-1H-inden-3-yl)acetic acid] | < 30 | ≥ 50 | < 30 | ≥ 50 | ≥ 50 | ≥ 50 | < 30 | ≥ 50 | < 30 | ≥ 50 | < 30 | ≥ 50 | < 30 | ≥ 50 | inhibition at 30 µM [1]: ≥ 50%; inhibition at 30 µM [2]: ≥ 50%; inhibition at 30 µM [3]: ≥ 50%; inhibition at 30 µM [4]: ≥ 50%; inhibition at 30 µM [5]: ≥ 50%; inhibition at 30 µM [6]: ≥ 50%; inhibition at 30 µM [7]: ≥ 50%
CC1=C(CC(=O)O)c2cc(F)ccc2/C1=C\c1cccc(Oc2ccc(F)c(F)c2)c1 [C98, (Z)-2-(1-(3-(3,4-Difluorophenoxy)benzylidene)-5-fluoro-2-methyl-1H-inden-3-yl)acetic acid] | < 30 | ≥ 50 | 30 to 50 | ≥ 50 | < 30 | 30 to 50 | < 30 | 30 to 50 | < 30 | < 30 | < 30 | < 30 | < 30 | ≥ 50 | 
COc1ccc(/C=C2/C(C)=C(CC(=O)O)c3cc(F)ccc32)cc1Cl [D12, (Z)-2-(1-(3-Chloro-4-methoxybenzylidene)-5-fluoro-2-methyl-1H-inden-3-yl)acetic acid] | < 30 | 30 to 50 | < 30 | 30 to 50 | ≥ 50 | ≥ 50 | < 30 | 30 to 50 | < 30 | < 30 | < 30 | < 30 | < 30 | 30 to 50 | inhibition at 30 µM [1]: ≥ 50%; inhibition at 30 µM [2]: ≥ 50%; inhibition at 30 µM [3]: ≥ 50%; inhibition at 30 µM [4]: ≥ 50%; inhibition at 30 µM [5]: ≥ 50%; inhibition at 30 µM [6]: ≥ 50%; inhibition at 30 µM [7]: ≥ 50%
CC1=C(CC(=O)O)c2cc(F)ccc2/C1=C\c1cccc(CS(=O)(=O)c2ccc(F)cc2)c1 [B51, (Z)-2-(5-Fluoro-1-(3-(((4-fluorophenyl)sulfonyl)methyl)benzylidene)-2-methyl-1H-inden-3-yl)acetic acid] | 30 to 50 | ≥ 50 | < 30 | ≥ 50 | 30 to 50 | 30 to 50 | 30 to 50 | ≥ 50 | < 30 | 30 to 50 | < 30 | 30 to 50 | < 30 | < 30 | 
CC1=C(CC(=O)O)c2cc(F)ccc2/C1=C\c1cccc(S(=O)(=O)c2ccc(F)cc2)c1 [C44, (Z)-2-(5-Fluoro-1-(3-((4-fluorophenyl)sulfonyl)benzylidene)-2-methyl-1H-inden-3-yl)acetic acid] | < 30 | ≥ 50 | < 30 | 30 to 50 | ≥ 50 | 30 to 50 | ≥ 50 | ≥ 50 | < 30 | 30 to 50 | < 30 | 30 to 50 | < 30 | ≥ 50 | 
CC1=C(CC(=O)O)c2cc(F)ccc2/C1=C\c1ccc(Oc2ccc(Cl)c(Cl)c2)cc1 [C49, (Z)-2-(1-(4-(3,4-Dichlorophenoxy)benzylidene)-5-fluoro-2-methyl-1H-inden-3-yl)acetic acid] | ≥ 50 | ≥ 50 | < 30 | ≥ 50 | ≥ 50 | ≥ 50 | < 30 | ≥ 50 | < 30 | ≥ 50 | 30 to 50 | ≥ 50 | < 30 | ≥ 50 | 
CC1=C(CC(=O)O)c2cc(F)ccc2/C1=C\c1ccc(Oc2ccc(F)c(Br)c2)cc1 [C53, (Z)-2-(1-(4-(3-Bromo-4-fluorophenoxy)benzylidene)-5-fluoro-2-methyl-1H-inden-3-yl)acetic acid] | < 30 | ≥ 50 | < 30 | ≥ 50 | ≥ 50 | ≥ 50 | ≥ 50 | ≥ 50 | < 30 | 30 to 50 | < 30 | ≥ 50 | < 30 | ≥ 50 | 
CCc1ccc2c(c1)C(CC(=O)O)=C(C)/C2=C/c1ccc(COCc2ccc(Cl)cc2)cc1 [B122, (Z)-2-(1-(4-(((4-Chlorobenzyl)oxy)methyl)benzylidene)-5-ethyl-2-methyl-1H-inden-3-yl)acetic acid] | < 30 | ≥ 50 | 30 to 50 | ≥ 50 | ≥ 50 | ≥ 50 | < 30 | ≥ 50 | 30 to 50 | ≥ 50 | 30 to 50 | ≥ 50 | ≥ 50 | ≥ 50 | 
